# According to US20100234238A1, “METHOD FOR PROFILING KINASE INHIBITORS” (Janssen Pharmaceutica N V, priority 2006, published 2010):
# Test system: tyrosine kinase activity in lysates prepared from cell lines
# Assay: PAMCHIP96 tyrosine peptide array profiling of lysates of 27 cell lines in absence or presence of MTKI
# Assay type: biochemical
# Conditions: 5 μM
# From the text: PAMGENE technology using the tyrosine peptide PAMCHIP96 allows the kinetic detection of the phosphorylation of 144 tyrosine peptides spotted onto a 3-dimensional porous well of a 96-well plate (www.pamgene.com). This technology can be used to measure the activity of purified kinases and the effects of kinase inhibitors thereon. Phosphotyrosine peptides are detected using a mix of fluorescently labeled anti-phosphotyrosine antibodies. Phosphorylation of peptides can be followed in real time due to the possibility of removing the reaction mix for a few seconds during the assay by a pumping mechanism to allow CCD camera detection of phosphopeptides bound to the fluorescent antibody. These consecutive datapoints (quantified spot images) generate a kinetic curve for each individual peptide, and allow for the calculation of initial velocities and endpoints associated with each individual peptide.
# Cells cultured in appropriate medium in T175 flasks, treated with compound if necessary, are harvested at 70-90% confluency.
# Media is removed, cells are washed with 10 ml ice cold PBS containing 0.1 mM NaVO4 and lysed in 1 ml of M-PER buffer (PIERCE) containing phosphatase and protease inhibitors (HALT, PIERCE). Cells are collected by scraping, and centrifuged for 10 minutes at 12 000×g. Supernatant lysates are filtered through a 0.2 micrometer filter (Anotop 0.2 μm anopore filter; Whatmann). Lysates are flash frozen in liquid nitrogen and stored at −80C.
# Just prior to the PAMCHIP experiment, total protein content is quantitated in the lysates and lysates are diluted to 1 mg/ml in a total volume of 200 μl, with M-PER phosphatase and protease inhibitors (HALT, PIERCE). 10 μg of total lysate (corresponding to 10 μl) will be used per well on the PAMCHIP96.
# To all 200 μl lysates 10 units of benzonase (Novagen) is added and lysates are further incubated for 30 min on ice and next centrifuged for 10 minutes at 12 000×g. The supernatant is then 1:1 diluted with compound or DMSO diluted to the appropriate concentration in water, and lysates are further incubated exactly 60 min on ice. Meanwhile, a PAMCHIP96 tyrosine peptide chip (PAMGENE) is blocked with 2% BSA (filtered through a 0.2 μm anopore filter; Whatmann) using the standard setting of a PAMSTATION96 (PAMGENE).
# The composition of the kinase buffer is as follows: 1×ABL buffer (NEB), 0.5 mg/ml BSA (from 10 mg/ml NEB stock), 100 μM ATP (dissolved and diluted in 1×ABL buffer), 5 μg/ml PY20-FITC (ExAlpha Biologicals, azide-free preparation). A twofold concentrated kinase buffer is prepared chilled on ice, DMSO or compound is added as appropriate, and the solution is added 1:1 to the (compound treated) ice cold lysates, and immediately applied to a tyrosine peptide PAMCHIP96. The assay is run on a PAMSTATION96 according to standard procedures: after loading of the plate, solution is pumped once onto the wells, a first exposure is read (150 mSec) and then a kinetic reading program (reading every 5 min for 150 mSec) is run for 60 min. Lysates are run in 6 technical replicates for each condition; replicates are always applied horizontally next to each other to avoid vertical strip effects of the chip.
# The data (spot images) are further quantified and linked to the peptide identities using EVOLVE PAMGRID software (PAMGENE). The quantified data are then fit to a curve using CurveFitHT software (PAMGENE) using the Vinip2 curve fitting algorithm, applied on the first 30 min of the assay; the initial velocity is derived at the first kinetic time point read. All subsequent data analyses were done on initial velocities (Vini) using the software packages Omniviz and R (Ihaka, R. and Gentlemen, R. (1996) R: a language for data analysis and graphics. J. Comput. Graph. Stat., 5, 299-314).
# After replacing the Vini's lower than 0.1 by 0.1, all Vini's were log 2-transformed to approach normality.
structure (smiles),measurement,setting,value
"COc1cc2ncnc3c2cc1OCCCCCN(C)Cc1ccc(Br)cc1N3 [MTKI, 4,6-ethanediylidenepyrimido[4,5-b][6,1,12]benzoxadiazacyclopentadecine, 17-bromo-8,9,10,11,12,13,14,19-octahydro-20-methoxy-13-methyl-]",ratio of initial velocity of peptide phosphorylation,"A431 lysate, CDK7_157_169_S164",0.53
same,ratio of initial velocity of peptide phosphorylation,"A431 lysate, CREB1_122_134_Y134/S133",0.63
same,ratio of initial velocity of peptide phosphorylation,"A431 lysate, DDR2_733_745_Y740",0.56
same,ratio of initial velocity of peptide phosphorylation,"A431 lysate, MK10_216_228_T221/Y223",0.46
same,ratio of initial velocity of peptide phosphorylation,"A431 lysate, NCF1_313_325_S315/S320",0.57
same,ratio of initial velocity of peptide phosphorylation,"A431 lysate, NPT2_501_513_T508",0.53
same,ratio of initial velocity of peptide phosphorylation,"A431 lysate, PECA1_706_718_Y713",0.72
same,ratio of initial velocity of peptide phosphorylation,"A431 lysate, PGFRB_768_780_Y771/Y775/Y778",0.97
same,ratio of initial velocity of peptide phosphorylation,"A431 lysate, PLCG1_764_776_Y771",0.82
same,ratio of initial velocity of peptide phosphorylation,"A431 lysate, PRRX2_202_214_Y214",0.75
same,ratio of initial velocity of peptide phosphorylation,"A431 lysate, RASA1_453_465_Y460",0.62
same,ratio of initial velocity of peptide phosphorylation,"A431 lysate, STAT2_683_695_Y690",0.57
same,ratio of initial velocity of peptide phosphorylation,"A431 lysate, SYN1_2_14_S9",0.58
same,ratio of initial velocity of peptide phosphorylation,"A431 lysate, TYRO3_679_691_Y686",0.52
same,ratio of initial velocity of peptide phosphorylation,"H322 lysate, CDK7_157_169_S164",0.88
same,ratio of initial velocity of peptide phosphorylation,"H322 lysate, CREB1_122_134_Y134/S133",0.94
same,ratio of initial velocity of peptide phosphorylation,"H322 lysate, DDR2_733_745_Y740",0.85
same,ratio of initial velocity of peptide phosphorylation,"H322 lysate, ENOG_37_49_Y43",0.76
same,ratio of initial velocity of peptide phosphorylation,"H322 lysate, MK10_216_228_T221/Y223",0.76
same,ratio of initial velocity of peptide phosphorylation,"H322 lysate, NCF1_313_325_S315/S320",0.88
same,ratio of initial velocity of peptide phosphorylation,"H322 lysate, NPT2_501_513_T508",0.88
same,ratio of initial velocity of peptide phosphorylation,"H322 lysate, PECA1_706_718_Y713",0.73
same,ratio of initial velocity of peptide phosphorylation,"H322 lysate, PGFRB_768_780_Y771/Y775/Y778",0.92
same,ratio of initial velocity of peptide phosphorylation,"H322 lysate, PLCG1_764_776_Y771",0.79
same,ratio of initial velocity of peptide phosphorylation,"H322 lysate, PRRX2_202_214_Y214",0.85
same,ratio of initial velocity of peptide phosphorylation,"H322 lysate, RASA1_453_465_Y460",0.83
same,ratio of initial velocity of peptide phosphorylation,"H322 lysate, STAT2_683_695_Y690",0.89
same,ratio of initial velocity of peptide phosphorylation,"H322 lysate, SYN1_2_14_S9",0.91
same,ratio of initial velocity of peptide phosphorylation,"H322 lysate, TYRO3_679_691_Y686",0.96
same,ratio of initial velocity of peptide phosphorylation,"H2122 lysate, CDK7_157_169_S164",0.90
same,ratio of initial velocity of peptide phosphorylation,"H2122 lysate, CREB1_122_134_Y134/S133",0.85
same,ratio of initial velocity of peptide phosphorylation,"H2122 lysate, DDR2_733_745_Y740",0.81
same,ratio of initial velocity of peptide phosphorylation,"H2122 lysate, ENOG_37_49_Y43",0.71
same,ratio of initial velocity of peptide phosphorylation,"H2122 lysate, MK10_216_228_T221/Y223",0.79
same,ratio of initial velocity of peptide phosphorylation,"H2122 lysate, NCF1_313_325_S315/S320",0.94
same,ratio of initial velocity of peptide phosphorylation,"H2122 lysate, NPT2_501_513_T508",0.90
same,ratio of initial velocity of peptide phosphorylation,"H2122 lysate, PECA1_706_718_Y713",0.67
same,ratio of initial velocity of peptide phosphorylation,"H2122 lysate, PLCG1_764_776_Y771",0.76
same,ratio of initial velocity of peptide phosphorylation,"H2122 lysate, PRRX2_202_214_Y214",0.84
same,ratio of initial velocity of peptide phosphorylation,"H2122 lysate, RASA1_453_465_Y460",0.78
same,ratio of initial velocity of peptide phosphorylation,"H2122 lysate, STAT2_683_695_Y690",0.90
same,ratio of initial velocity of peptide phosphorylation,"H2122 lysate, SYN1_2_14_S9",0.91
same,ratio of initial velocity of peptide phosphorylation,"H2122 lysate, TYRO3_679_691_Y686",0.95
same,ratio of initial velocity of peptide phosphorylation,"H3255 lysate, CDK7_157_169_S164",0.55
same,ratio of initial velocity of peptide phosphorylation,"H3255 lysate, CREB1_122_134_Y134/S133",0.73
same,ratio of initial velocity of peptide phosphorylation,"H3255 lysate, DDR2_733_745_Y740",0.44
same,ratio of initial velocity of peptide phosphorylation,"H3255 lysate, ENOG_37_49_Y43",0.76
same,ratio of initial velocity of peptide phosphorylation,"H3255 lysate, MK10_216_228_T221/Y223",0.47
same,ratio of initial velocity of peptide phosphorylation,"H3255 lysate, NCF1_313_325_S315/S320",0.59
same,ratio of initial velocity of peptide phosphorylation,"H3255 lysate, NPT2_501_513_T508",0.68
